Assay results from the kinase profiling compilation of Christmann-Franck et al. (2016).

Legend:
Experiment in all cases: radiometric filter-binding kinase assay
CSNK2A1 (human) = CSNK2A1 (human) (UniProt P68400)
LCK (mouse) = conditions: accession and sequence are those of the human protein
BRSK2 (human) = BRSK2 (human) (UniProt Q8IWQ3)
EPHA2 (human) = EPHA2 (human) (UniProt P29317)
PKN2 (human) = PKN2 (human) (UniProt Q16513)
PAK4 (human) = PAK4 (human) (UniProt O96013)
IKBKB (human) = IKBKB (human) (UniProt O14920)
[1] = target: PRKAA1 PRKAB2 PRKAG1 (human) (UniProt O43741+Q13131+P54619)
INSRR (human) = INSRR (human) (UniProt P14616)
MST4 (human) = MST4 (human) (UniProt Q9P289)
FGFR1 (human) = FGFR1 (human) (UniProt P11362)
PAK6 (human) = PAK6 (human) (UniProt Q9NQU5)
MAPK9 (human) = MAPK9 (human) (UniProt P45984)
PIM2 (human) = PIM2 (human) (UniProt Q9P1W9)
PRKCZ (human) = PRKCZ (human) (UniProt Q05513)
MARK3 (human) = MARK3 (human) (UniProt P27448)
PIM3 (human) = PIM3 (human) (UniProt Q86V86)
STK3 (human) = STK3 (human) (UniProt Q13188)
MAPK1 (human) = MAPK1 (human) (UniProt P28482)
MAP2K1 (human) = MAP2K1 (human) (UniProt Q02750)
DYRK3 (human) = DYRK3 (human) (UniProt O43781)
MAPK12 (human) = MAPK12 (human) (UniProt P53778)
AURKB (human) = AURKB (human) (UniProt Q96GD4)
PAK7 (human) = PAK7 (human) (UniProt Q9P286)
HIPK2 (human) = HIPK2 (human) (UniProt Q9H2X6)
PRKCG (human) = PRKCG (human) (UniProt P05129); conditions: compound 1.0 µM
MAP3K9 (human) = MAP3K9 (human) (UniProt P80192); conditions: compound 1.0 µM
ABL1 (human) = ABL1 (human) (UniProt P00519); conditions: compound 1.0 µM
[2] = target: STK11 CAB39 STRADA (human) (UniProt Q9Y376+Q7RTN6+Q15831); conditions: compound 1.0 µM
TEK (human) = TEK (human) (UniProt Q02763); conditions: compound 1.0 µM
RIPK2 (human) = RIPK2 (human) (UniProt O43353); conditions: compound 1.0 µM
MINK1 (human) = MINK1 (human) (UniProt Q8N4C8); conditions: compound 1.0 µM
MAPKAPK3 (human) = MAPKAPK3 (human) (UniProt Q16644); conditions: compound 1.0 µM
MAP3K11 (human) = MAP3K11 (human) (UniProt Q16584); conditions: compound 1.0 µM
HIPK3 (human) = HIPK3 (human) (UniProt Q9H422); conditions: compound 1.0 µM
TTK (human) = TTK (human) (UniProt P33981); conditions: compound 1.0 µM
CLK2 (human) = CLK2 (human) (UniProt P49760); conditions: compound 1.0 µM
FLT1 (human) = FLT1 (human) (UniProt P17948); conditions: compound 1.0 µM
TAOK1 (human) = TAOK1 (human) (UniProt Q7L7X3); conditions: compound 1.0 µM
IGF1R (human) = IGF1R (human) (UniProt P08069); conditions: compound 1.0 µM

Sequence of CSNK2A1 (human) (P68400 whole entry, looked up): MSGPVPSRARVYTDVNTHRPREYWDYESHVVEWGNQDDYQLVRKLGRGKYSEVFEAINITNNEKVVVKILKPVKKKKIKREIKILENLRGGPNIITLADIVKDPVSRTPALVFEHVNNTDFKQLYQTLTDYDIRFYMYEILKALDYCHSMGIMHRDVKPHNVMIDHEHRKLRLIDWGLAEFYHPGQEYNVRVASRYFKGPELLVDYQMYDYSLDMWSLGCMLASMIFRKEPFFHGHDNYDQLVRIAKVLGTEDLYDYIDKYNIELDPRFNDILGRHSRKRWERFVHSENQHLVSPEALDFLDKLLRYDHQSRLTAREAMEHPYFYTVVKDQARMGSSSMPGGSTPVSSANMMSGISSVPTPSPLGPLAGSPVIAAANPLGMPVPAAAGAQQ
Sequence of HIPK2 (human) (Q9H2X6 whole entry, looked up): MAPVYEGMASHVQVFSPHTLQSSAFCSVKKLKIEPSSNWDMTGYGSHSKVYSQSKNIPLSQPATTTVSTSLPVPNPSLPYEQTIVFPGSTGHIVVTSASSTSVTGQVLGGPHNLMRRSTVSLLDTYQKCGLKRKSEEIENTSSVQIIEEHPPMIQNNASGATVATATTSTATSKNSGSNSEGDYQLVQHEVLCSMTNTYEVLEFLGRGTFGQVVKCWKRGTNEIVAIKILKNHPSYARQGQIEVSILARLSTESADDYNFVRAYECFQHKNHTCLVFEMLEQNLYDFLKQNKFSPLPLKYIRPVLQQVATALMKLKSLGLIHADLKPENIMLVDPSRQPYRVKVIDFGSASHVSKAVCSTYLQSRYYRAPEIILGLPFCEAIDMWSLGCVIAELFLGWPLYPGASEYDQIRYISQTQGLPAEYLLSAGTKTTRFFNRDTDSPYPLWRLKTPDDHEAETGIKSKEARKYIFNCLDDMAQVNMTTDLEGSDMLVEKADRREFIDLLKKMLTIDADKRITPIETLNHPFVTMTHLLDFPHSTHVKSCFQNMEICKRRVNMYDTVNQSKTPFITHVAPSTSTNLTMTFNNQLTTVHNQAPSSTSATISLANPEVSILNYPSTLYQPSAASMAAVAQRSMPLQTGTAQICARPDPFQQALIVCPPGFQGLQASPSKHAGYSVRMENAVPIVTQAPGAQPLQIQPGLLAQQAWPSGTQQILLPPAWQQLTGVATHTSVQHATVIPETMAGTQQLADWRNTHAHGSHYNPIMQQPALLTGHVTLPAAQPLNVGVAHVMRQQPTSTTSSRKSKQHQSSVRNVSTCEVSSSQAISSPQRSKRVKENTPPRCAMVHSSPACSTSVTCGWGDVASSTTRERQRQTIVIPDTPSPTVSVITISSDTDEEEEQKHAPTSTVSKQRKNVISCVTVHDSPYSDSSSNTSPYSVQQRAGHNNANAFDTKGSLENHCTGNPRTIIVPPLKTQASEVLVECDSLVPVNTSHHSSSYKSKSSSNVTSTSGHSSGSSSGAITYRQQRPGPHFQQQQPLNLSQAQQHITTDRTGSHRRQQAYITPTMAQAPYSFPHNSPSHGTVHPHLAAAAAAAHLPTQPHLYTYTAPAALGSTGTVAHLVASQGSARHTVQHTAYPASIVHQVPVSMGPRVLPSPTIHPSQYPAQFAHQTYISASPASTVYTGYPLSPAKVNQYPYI
Sequence of FGFR1 (human) (P11362 whole entry, looked up): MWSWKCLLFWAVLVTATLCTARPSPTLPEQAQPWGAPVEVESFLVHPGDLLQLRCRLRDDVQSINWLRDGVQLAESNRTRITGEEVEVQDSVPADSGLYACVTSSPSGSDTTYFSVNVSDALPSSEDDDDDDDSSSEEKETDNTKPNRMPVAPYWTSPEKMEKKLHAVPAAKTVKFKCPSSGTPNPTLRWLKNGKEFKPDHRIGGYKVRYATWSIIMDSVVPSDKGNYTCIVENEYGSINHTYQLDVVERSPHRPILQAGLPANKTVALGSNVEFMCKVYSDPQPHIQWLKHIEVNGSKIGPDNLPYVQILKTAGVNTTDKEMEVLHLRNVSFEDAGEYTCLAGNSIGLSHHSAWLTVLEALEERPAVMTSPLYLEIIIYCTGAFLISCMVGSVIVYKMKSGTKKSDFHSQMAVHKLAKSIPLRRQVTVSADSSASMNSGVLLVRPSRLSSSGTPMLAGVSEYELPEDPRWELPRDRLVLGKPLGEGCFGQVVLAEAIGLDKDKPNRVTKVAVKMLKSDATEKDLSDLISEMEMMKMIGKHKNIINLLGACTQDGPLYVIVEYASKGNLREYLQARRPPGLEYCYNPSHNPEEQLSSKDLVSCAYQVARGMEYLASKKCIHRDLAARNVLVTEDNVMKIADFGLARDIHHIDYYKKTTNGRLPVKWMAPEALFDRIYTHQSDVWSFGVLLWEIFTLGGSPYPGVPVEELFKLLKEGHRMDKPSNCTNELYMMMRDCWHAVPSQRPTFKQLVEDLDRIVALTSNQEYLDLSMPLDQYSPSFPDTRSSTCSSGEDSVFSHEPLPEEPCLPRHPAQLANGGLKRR
Sequence of MAPK12 (human) (P53778 whole entry, looked up): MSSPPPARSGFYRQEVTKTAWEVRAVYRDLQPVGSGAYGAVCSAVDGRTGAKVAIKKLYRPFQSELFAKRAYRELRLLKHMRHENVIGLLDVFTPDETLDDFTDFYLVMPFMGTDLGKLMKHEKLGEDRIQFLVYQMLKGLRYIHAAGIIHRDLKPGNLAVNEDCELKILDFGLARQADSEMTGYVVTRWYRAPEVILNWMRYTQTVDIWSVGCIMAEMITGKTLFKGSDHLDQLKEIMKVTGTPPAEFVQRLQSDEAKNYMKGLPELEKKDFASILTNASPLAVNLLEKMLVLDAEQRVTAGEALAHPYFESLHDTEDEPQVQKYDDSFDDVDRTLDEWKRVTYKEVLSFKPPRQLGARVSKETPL
Sequence of PRKAA1 PRKAB2 PRKAG1 (human) (O43741 whole entry, looked up): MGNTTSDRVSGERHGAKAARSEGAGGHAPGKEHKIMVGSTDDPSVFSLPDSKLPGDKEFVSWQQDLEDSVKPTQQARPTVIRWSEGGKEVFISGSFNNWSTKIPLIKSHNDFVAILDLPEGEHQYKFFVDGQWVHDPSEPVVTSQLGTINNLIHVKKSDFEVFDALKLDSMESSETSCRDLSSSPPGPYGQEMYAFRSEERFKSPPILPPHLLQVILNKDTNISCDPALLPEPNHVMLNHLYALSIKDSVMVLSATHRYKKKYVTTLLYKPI
Sequence of PRKAA1 PRKAB2 PRKAG1 (human) (P54619 whole entry, looked up): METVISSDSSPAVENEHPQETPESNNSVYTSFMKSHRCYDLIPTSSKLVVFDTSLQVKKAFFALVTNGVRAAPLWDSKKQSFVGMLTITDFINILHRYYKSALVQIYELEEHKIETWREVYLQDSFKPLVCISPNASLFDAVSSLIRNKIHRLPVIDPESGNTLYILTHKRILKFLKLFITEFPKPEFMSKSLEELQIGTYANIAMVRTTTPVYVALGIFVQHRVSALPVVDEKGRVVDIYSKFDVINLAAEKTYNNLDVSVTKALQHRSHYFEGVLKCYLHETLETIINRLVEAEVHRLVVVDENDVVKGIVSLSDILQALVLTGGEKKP
Sequence of PRKAA1 PRKAB2 PRKAG1 (human) (Q13131 whole entry, looked up): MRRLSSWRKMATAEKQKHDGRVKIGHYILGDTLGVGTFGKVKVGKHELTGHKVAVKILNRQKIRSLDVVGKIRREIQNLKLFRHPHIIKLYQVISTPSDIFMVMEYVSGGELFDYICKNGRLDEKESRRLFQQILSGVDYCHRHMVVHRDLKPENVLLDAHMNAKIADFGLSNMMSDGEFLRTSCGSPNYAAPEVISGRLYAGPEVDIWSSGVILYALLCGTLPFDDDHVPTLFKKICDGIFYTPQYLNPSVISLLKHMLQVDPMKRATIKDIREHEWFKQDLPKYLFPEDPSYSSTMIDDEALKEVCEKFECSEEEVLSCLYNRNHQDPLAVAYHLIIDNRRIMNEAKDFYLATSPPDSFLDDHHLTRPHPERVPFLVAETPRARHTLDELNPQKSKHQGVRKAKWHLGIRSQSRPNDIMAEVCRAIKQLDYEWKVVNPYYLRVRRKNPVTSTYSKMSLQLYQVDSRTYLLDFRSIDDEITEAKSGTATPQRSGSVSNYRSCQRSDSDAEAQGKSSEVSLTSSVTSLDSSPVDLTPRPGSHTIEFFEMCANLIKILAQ
Sequence of DYRK3 (human) (O43781 whole entry, looked up): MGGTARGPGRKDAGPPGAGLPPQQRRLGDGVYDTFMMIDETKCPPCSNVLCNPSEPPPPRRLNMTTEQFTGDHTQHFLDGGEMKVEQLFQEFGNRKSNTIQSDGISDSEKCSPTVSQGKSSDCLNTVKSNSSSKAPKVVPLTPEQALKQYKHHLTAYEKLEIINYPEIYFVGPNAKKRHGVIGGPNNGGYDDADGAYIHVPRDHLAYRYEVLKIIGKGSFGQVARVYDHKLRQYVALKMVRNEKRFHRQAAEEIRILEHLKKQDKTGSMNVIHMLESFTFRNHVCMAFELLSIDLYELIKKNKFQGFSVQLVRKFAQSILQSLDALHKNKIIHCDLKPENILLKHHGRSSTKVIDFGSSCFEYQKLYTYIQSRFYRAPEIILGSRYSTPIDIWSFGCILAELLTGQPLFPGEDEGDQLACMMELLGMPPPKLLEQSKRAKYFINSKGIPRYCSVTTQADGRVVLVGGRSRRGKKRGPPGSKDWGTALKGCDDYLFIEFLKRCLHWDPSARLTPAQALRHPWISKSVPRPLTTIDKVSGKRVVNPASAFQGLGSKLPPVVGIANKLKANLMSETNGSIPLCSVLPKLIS
Sequence of MST4 (human) (Q9P289 whole entry, looked up): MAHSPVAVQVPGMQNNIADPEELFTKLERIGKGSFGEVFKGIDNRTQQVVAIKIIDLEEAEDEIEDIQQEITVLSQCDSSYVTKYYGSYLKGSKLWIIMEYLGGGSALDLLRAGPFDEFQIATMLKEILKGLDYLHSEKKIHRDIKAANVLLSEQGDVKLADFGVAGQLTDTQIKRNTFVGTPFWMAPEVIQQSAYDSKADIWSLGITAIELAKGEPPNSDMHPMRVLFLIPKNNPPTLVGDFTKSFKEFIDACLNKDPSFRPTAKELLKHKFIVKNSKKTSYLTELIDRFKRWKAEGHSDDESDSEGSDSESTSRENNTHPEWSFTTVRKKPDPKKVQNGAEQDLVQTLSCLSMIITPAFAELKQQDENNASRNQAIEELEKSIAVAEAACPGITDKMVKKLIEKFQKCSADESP

`Oc1ccc2c(c1)C(O)c1cc(O)ccc1-2` was tested. Which IC50 (CSNK2A1 (human)) did it give?
Its IC50 is > 40 µM.

What about the residual activity (CSNK2A1 (human); compound 20.0 µM) of the same compound?
Its residual activity is 52%.

What about the residual activity (LCK (mouse); compound 20.0 µM) of the same compound?
Its residual activity is 93%.

What about the residual activity (BRSK2 (human); compound 20.0 µM) of the same compound?
Its residual activity is 96%.

What about the residual activity (EPHA2 (human); compound 20.0 µM) of the same compound?
Its residual activity is 86%.

What about the residual activity (PKN2 (human); compound 20.0 µM) of the same compound?
Its residual activity is 86%.

And the residual activity (PAK4 (human); compound 20.0 µM)?
The residual activity was 46%.

And the residual activity (IKBKB (human); compound 20.0 µM)?
Its residual activity is 94%.

What about the residual activity ([1]; compound 20.0 µM) of the same compound?
The residual activity was 99%.

What about the residual activity (INSRR (human); compound 20.0 µM) of the same compound?
Its residual activity is 47%.

And the residual activity (MST4 (human); compound 20.0 µM)?
The residual activity was 87%.

And the residual activity (FGFR1 (human); compound 20.0 µM)?
The residual activity was 62%.

And the residual activity (PAK6 (human); compound 20.0 µM)?
Its residual activity is 90%.

And the residual activity (MAPK9 (human); compound 20.0 µM)?
The residual activity was 99%.

And the residual activity (PIM2 (human); compound 20.0 µM)?
The residual activity was 66%.

What about the residual activity (PRKCZ (human); compound 20.0 µM) of the same compound?
The residual activity was 89%.

And the residual activity (MARK3 (human); compound 20.0 µM)?
The residual activity was 64%.

And the residual activity (PIM3 (human); compound 20.0 µM)?
The residual activity was 21%.

What about the residual activity (STK3 (human); compound 20.0 µM) of the same compound?
The residual activity was 39%.

And the residual activity (MAPK1 (human); compound 20.0 µM)?
The residual activity was 101%.

And the residual activity (MAP2K1 (human); compound 20.0 µM)?
The residual activity was 122%.

And the residual activity (DYRK3 (human); compound 20.0 µM)?
The residual activity was 15%.

What about the residual activity (MAPK12 (human); compound 20.0 µM) of the same compound?
The residual activity was 85%.

What about the residual activity (AURKB (human); compound 20.0 µM) of the same compound?
The residual activity was 75%.

And the residual activity (PAK7 (human); compound 20.0 µM)?
The residual activity was 64%.

What about the residual activity (HIPK2 (human); compound 20.0 µM) of the same compound?
The residual activity was 62%.

For `COc1ccc2c(c1)[nH]c1c(C)nccc12`, which residual activity (PRKCG (human)) is on record?
Its residual activity is 100%.

What about the IC50 (CSNK2A1 (human)) of the same compound?
Its IC50 is > 40 µM.

And the residual activity (CSNK2A1 (human); compound 1.0 µM)?
Its residual activity is 83%.

And the residual activity (LCK (mouse); compound 1.0 µM)?
The residual activity was 88%.

And the residual activity (MAP3K9 (human))?
Its residual activity is 111%.

What about the residual activity (BRSK2 (human); compound 1.0 µM) of the same compound?
Its residual activity is 107%.

What about the residual activity (EPHA2 (human); compound 1.0 µM) of the same compound?
The residual activity was 87%.

And the residual activity (PKN2 (human); compound 1.0 µM)?
Its residual activity is 61%.

What about the residual activity (ABL1 (human)) of the same compound?
The residual activity was 111%.

What about the residual activity (PAK4 (human); compound 1.0 µM) of the same compound?
The residual activity was 67%.

What about the residual activity (IKBKB (human); compound 1.0 µM) of the same compound?
Its residual activity is 81%.

What about the residual activity [2] of the same compound?
The residual activity was 94%.

What about the residual activity (TEK (human)) of the same compound?
The residual activity was 112%.

What about the residual activity ([1]; compound 1.0 µM) of the same compound?
Its residual activity is 106%.

What about the residual activity (INSRR (human); compound 1.0 µM) of the same compound?
The residual activity was 23%.

What about the residual activity (MST4 (human); compound 1.0 µM) of the same compound?
The residual activity was 135%.

And the residual activity (FGFR1 (human); compound 1.0 µM)?
Its residual activity is 103%.

And the residual activity (RIPK2 (human))?
Its residual activity is 107%.

And the residual activity (PAK6 (human); compound 1.0 µM)?
The residual activity was 107%.

What about the residual activity (MINK1 (human)) of the same compound?
The residual activity was 101%.

And the residual activity (MAPK9 (human); compound 1.0 µM)?
Its residual activity is 84%.

And the residual activity (PIM2 (human); compound 1.0 µM)?
The residual activity was 101%.

And the residual activity (MAPKAPK3 (human))?
The residual activity was 105%.

What about the residual activity (PRKCZ (human); compound 1.0 µM) of the same compound?
Its residual activity is 77%.

And the residual activity (MAP3K11 (human))?
The residual activity was 105%.

And the residual activity (MARK3 (human); compound 1.0 µM)?
Its residual activity is 107%.

What about the residual activity (HIPK3 (human)) of the same compound?
Its residual activity is 118%.

What about the residual activity (TTK (human)) of the same compound?
The residual activity was 75%.

And the residual activity (PIM3 (human); compound 1.0 µM)?
Its residual activity is 74%.

What about the residual activity (STK3 (human); compound 1.0 µM) of the same compound?
Its residual activity is 81%.

And the residual activity (MAPK1 (human); compound 1.0 µM)?
The residual activity was 100%.

And the residual activity (MAP2K1 (human); compound 1.0 µM)?
The residual activity was 102%.

What about the residual activity (CLK2 (human)) of the same compound?
The residual activity was 10%.

And the residual activity (FLT1 (human))?
Its residual activity is 78%.

And the residual activity (DYRK3 (human); compound 1.0 µM)?
Its residual activity is 31%.

What about the residual activity (MAPK12 (human); compound 1.0 µM) of the same compound?
Its residual activity is 67%.

What about the residual activity (AURKB (human); compound 1.0 µM) of the same compound?
Its residual activity is 94%.

What about the residual activity (PAK7 (human); compound 1.0 µM) of the same compound?
The residual activity was 90%.

And the residual activity (TAOK1 (human))?
Its residual activity is 111%.

What about the residual activity (IGF1R (human)) of the same compound?
The residual activity was 93%.

What about the residual activity (HIPK2 (human); compound 1.0 µM) of the same compound?
Its residual activity is 68%.
